A short description of this data set: Storage stability of amorphous Upadacitinib. It is filed as physicochemical.

SMILES strings stand for the structures.

For the compound `CC[C@@H]1CN(C(=O)NCC(F)(F)F)C[C@@H]1c1cnc2cnc3[nH]ccc3n12` [Amorphous form of Upadacitinib, (3S,4R)-3-ethyl-4-(3H-imidazo[1,2-a]pyrrolo[2,3-e]pyrazin-8-yl)-N-(2,2,2-trifluoroethyl)pyrrolidine-1-carboxamide], the stability on storage result was “stable” (12 months at 25° C./60+5% relative humidity) and “stable” (12 months at 40±2° C./75±5% relative humidity).

For the origin of these results see patent publication US20250074912A1, “IMPROVED PROCESS FOR THE PREPARATION OF UPADACITINIB” (MSN LABORATORIES PRIVATE LIMITED, R&D CENTER, priority 2022, published 2025).
